# Laboratory results taken from the NIST ThermoML archive (doi:10.1007/s10765-016-2104-7).
# ± gives the expanded uncertainty stated by the source.
# Details: Liquid, Vibrating wire viscometry
SMILES,viscosity (873 K) [mPa·s],viscosity (973 K) [mPa·s],viscosity (1073 K) [mPa·s],viscosity (1273 K) [mPa·s],viscosity (1323 K) [mPa·s],viscosity (1373 K) [mPa·s],viscosity (1423 K) [mPa·s],viscosity (1473 K) [mPa·s],viscosity (1523 K) [mPa·s],viscosity (1573 K) [mPa·s],viscosity (1623 K) [mPa·s],viscosity (1673 K) [mPa·s]
[Sn] [tin],1.253 ± 0.2,1.142 ± 0.3,1.087 ± 0.047,,,,,,,,,
[Ag] [silver],,,,3.52 ± 0.74,2.904 ± 0.45,2.812 ± 0.65,2.649 ± 0.33,2.54 ± 0.22,2.498 ± 0.46,2.399 ± 0.35,2.332 ± 0.39,2.214
[Au] [gold],,,,,,5.625 ± 0.65,5.47 ± 0.16,4.963 ± 0.36,4.764 ± 0.25,4.495 ± 0.32,4.276 ± 0.51,3.981 ± 0.57
